Literature values as cited in patent US20250369985A1, “METHOD FOR DETERMINING THE THERAPEUTIC REGIMEN FOR AN INDIVIDUAL AND ITS USE” (MOSAIQUES DIAGNOSTICS AND THERAPEUTICS AG, priority 2022, published 2025).
Like-named read-outs stand apart in the source and are kept apart here.

System: urinary proteins/peptides (71 biomarkers of CD71 classifier)

Measured: f (fold-change of the abundance)

Cc1ccc([C@@H]2O[C@H](CO)[C@@H](O)[C@H](O)[C@H]2O)cc1Cc1ccc(-c2ccc(F)cc2)s1 [drug C]
1.71: peptide 99910883 (Seq. ID No. 28)
2.01: peptide 99917825 (Seq. ID No. 66)
0.63: peptide 99917690 (Seq. ID No. 65)
1: peptide 99900220 (Seq. ID No. 1) | peptide 99900467 (Seq. ID No. 2) | peptide 99901399 (Seq. ID No. 3) | peptide 99902592 (Seq. ID No. 4) | peptide 99903025 (Seq. ID No. 5) | peptide 99904666 (Seq. ID No. 7) | peptide 99904862 (Seq. ID No. 8) | peptide 99905044 (Seq. ID No. 9) | peptide 99905259 (Seq. ID No. 10) | peptide 99905379 (Seq. ID No. 12) | peptide 99905423 (Seq. ID No. 13) | peptide 99905509 (Seq. ID No. 14) | peptide 99905551 (Seq. ID No. 15) | peptide 99906176 (Seq. ID No. 16) | peptide 99907275 (Seq. ID No. 17) | peptide 99908755 (Seq. ID No. 19) | peptide 99908795 (Seq. ID No. 20) | peptide 99908916 (Seq. ID No. 21) | peptide 99909059 (Seq. ID No. 22) | peptide 99910002 (Seq. ID No. 23) | peptide 99910032 (Seq. ID No. 24) | peptide 99910407 (Seq. ID No. 25) | peptide 99910483 (Seq. ID No. 26) | peptide 99910554 (Seq. ID No. 27) | peptide 99911002 (Seq. ID No. 29) | peptide 99911193 (Seq. ID No. 30) | peptide 99911415 (Seq. ID No. 31) | peptide 99911777 (Seq. ID No. 33) | peptide 99912101 (Seq. ID No. 34) | peptide 99912211 (Seq. ID No. 35) | peptide 99912366 (Seq. ID No. 36) | peptide 99912411 (Seq. ID No. 37) | peptide 99912661 (Seq. ID No. 38) | peptide 99913200 (Seq. ID No. 39) | peptide 99913825 (Seq. ID No. 41) | peptide 99914211 (Seq. ID No. 42) | peptide 99914876 (Seq. ID No. 44) | peptide 99914887 (Seq. ID No. 45) | peptide 99914893 (Seq. ID No. 46) | peptide 99915015 (Seq. ID No. 48) | peptide 99915755 (Seq. ID No. 49) | peptide 99915778 (Seq. ID No. 50) | peptide 99915883 (Seq. ID No. 51) | peptide 99916170 (Seq. ID No. 52) | peptide 99916177 (Seq. ID No. 53) | peptide 99916966 (Seq. ID No. 56) | peptide 99917047 (Seq. ID No. 57) | peptide 99917221 (Seq. ID No. 58) | peptide 99917280 (Seq. ID No. 59) | peptide 99917288 (Seq. ID No. 60) | peptide 99917419 (Seq. ID No. 61) | peptide 99917505 (Seq. ID No. 62) | peptide 99917596 (Seq. ID No. 63) | peptide 99917626 (Seq. ID No. 64) | peptide 99917890 (Seq. ID No. 67) | peptide 99917947 (Seq. ID No. 68) | peptide 99918831 (Seq. ID No. 69) | peptide 99918906 (Seq. ID No. 70) | peptide 99918909 (Seq. ID No. 71)
1.33: peptide 99911559 (Seq. ID No. 32)
0.79: peptide 99916611 (Seq. ID No. 54)
1.55: peptide 99914935 (Seq. ID No. 47)
1.86: peptide 99905274 (Seq. ID No. 11) | peptide 99913322 (Seq. ID No. 40)
1.84: peptide 99907807 (Seq. ID No. 18)
0.83: peptide 99916615 (Seq. ID No. 55)
0.64: peptide 99914445 (Seq. ID No. 43)
1.22: peptide 99904405 (Seq. ID No. 6)
